Source: article PMC9730833, “Targeting OCT2 with Duloxetine to Prevent Oxaliplatin-induced Peripheral Neurotoxicity” (Cancer Research Communications, 2022)

How the values were obtained:
Type in all cases: cell-based
OCT2 (mOCT2) [1] = molecular target: T1, OCT2 (mOCT2) (Mus musculus, UniProt O70577); experiment: fluorescent substrate uptake in cells overexpressing mOCT2; uptake impaired in OCT1/[…](−/−) satellite glial cells
T1 construct: gene Slc22a2
T1 sequence (O70577 1-553): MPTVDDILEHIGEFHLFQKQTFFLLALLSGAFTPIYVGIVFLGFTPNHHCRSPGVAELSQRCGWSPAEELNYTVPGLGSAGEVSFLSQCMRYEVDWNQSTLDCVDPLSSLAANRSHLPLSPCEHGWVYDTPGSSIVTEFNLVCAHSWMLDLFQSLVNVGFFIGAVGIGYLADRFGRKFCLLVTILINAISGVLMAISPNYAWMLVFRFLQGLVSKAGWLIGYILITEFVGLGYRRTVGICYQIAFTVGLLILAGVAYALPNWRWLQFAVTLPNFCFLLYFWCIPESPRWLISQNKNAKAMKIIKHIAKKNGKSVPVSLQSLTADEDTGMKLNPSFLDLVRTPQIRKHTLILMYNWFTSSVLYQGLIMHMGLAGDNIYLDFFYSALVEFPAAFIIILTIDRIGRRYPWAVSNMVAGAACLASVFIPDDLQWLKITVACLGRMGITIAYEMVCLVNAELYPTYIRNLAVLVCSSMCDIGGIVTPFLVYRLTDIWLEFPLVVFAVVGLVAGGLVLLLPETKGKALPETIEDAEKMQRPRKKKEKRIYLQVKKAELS

OCT2 (hOCT2) [2] = molecular target: T2, OCT2 (hOCT2) (Homo sapiens, UniProt O15244); experiment: fluorescent substrate uptake in HEK293 and Hela cells overexpressing hOCT2
T2 construct: gene SLC22A2
T2 sequence (O15244 1-555): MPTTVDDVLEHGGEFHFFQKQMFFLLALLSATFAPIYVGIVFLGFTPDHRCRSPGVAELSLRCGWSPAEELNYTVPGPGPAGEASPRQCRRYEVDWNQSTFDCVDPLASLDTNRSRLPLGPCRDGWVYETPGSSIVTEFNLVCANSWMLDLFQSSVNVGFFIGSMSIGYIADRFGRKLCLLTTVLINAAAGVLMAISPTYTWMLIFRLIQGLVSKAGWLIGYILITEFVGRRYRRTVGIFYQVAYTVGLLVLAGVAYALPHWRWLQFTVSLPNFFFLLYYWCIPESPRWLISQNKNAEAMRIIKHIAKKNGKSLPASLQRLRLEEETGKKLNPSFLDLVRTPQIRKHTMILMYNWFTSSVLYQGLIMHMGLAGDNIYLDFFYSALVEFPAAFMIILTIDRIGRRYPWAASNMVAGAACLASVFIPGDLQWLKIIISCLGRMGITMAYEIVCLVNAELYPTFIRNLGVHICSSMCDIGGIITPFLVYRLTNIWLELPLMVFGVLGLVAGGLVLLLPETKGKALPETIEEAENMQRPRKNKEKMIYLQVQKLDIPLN

OCT2 (rOCT2) = molecular target: T3, OCT2 (rOCT2) (Rattus norvegicus, UniProt Q9R0W2); experiment: inhibition of TEA uptake in HEK293 cells overexpressing rOCT2
T3 construct: gene Slc22a2
T3 sequence (Q9R0W2 1-555): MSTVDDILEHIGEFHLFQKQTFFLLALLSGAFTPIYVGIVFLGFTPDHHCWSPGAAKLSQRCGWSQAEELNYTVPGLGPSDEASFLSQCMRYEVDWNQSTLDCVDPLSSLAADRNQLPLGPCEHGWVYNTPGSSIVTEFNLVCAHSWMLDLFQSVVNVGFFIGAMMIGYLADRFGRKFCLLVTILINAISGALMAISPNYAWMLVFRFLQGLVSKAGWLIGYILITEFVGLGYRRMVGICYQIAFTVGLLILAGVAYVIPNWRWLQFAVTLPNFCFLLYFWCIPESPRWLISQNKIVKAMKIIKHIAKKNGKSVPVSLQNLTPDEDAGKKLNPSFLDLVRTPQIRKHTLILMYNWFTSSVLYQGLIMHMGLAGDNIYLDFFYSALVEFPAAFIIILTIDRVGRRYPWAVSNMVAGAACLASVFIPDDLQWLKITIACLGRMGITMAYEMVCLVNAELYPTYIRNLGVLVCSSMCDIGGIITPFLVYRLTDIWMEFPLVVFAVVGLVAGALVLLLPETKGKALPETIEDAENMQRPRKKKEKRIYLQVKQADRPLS

OCT2 (hOCT2) [3] = molecular target: T2, OCT2 (hOCT2); experiment: inhibition of ASP uptake in Hela cells overexpressing hOCT2 ([…] in HEK293 cells)
OCT2 (mOCT2) [4] = molecular target: T1, OCT2 (mOCT2); experiment: inhibition of TEA, oxaliplatin and ASP uptake in HEK293 cells overexpressing mOCT2; reversible on washout

SMILES	fluorescent substrate uptake in cells overexpressing mOCT2; uptake impaired in O (OCT2 (mOCT2) [1])	fluorescent substrate uptake in HEK293 and Hela cells overexpressing hOCT2 (OCT2 (hOCT2) [2])	inhibition of TEA uptake in HEK293 cells overexpressing rOCT2 (OCT2 (rOCT2))	IC50 (OCT2 (hOCT2) [3]) [µM]	inhibition of TEA, oxaliplatin and ASP uptake in HEK293 cells overexpressing mOC (OCT2 (mOCT2) [4])
CN(C)c1ccc(C=Cc2cc[n+](C)cc2)cc1 [4-(4-(dimethylamino)styryl)-N-methylpyridinium iodide]	ASP was taken up in OCT2-proficient cells and uptake was significantly impaired under OCT2-deficient conditions	Concentration-dependent inhibition of OCT2-dependent ASP transport by duloxetine in HEK293 and Hela cells overexpressing hOCT2	–	–	–
CNCC[C@H](Oc1cccc2ccccc12)c1cccs1 [duloxetine]	–	–	These studies confirmed that duloxetine inhibits the transport of TEA by mouse, rat, and human OCT2.	3.98	These studies confirmed that duloxetine inhibits the transport of TEA by mouse, rat, and human OCT2.
